The text below walks through data of US8598123B2, “Peptide analogues” (Pfizer Inc., priority 2010, dated 2013).

Read-outs that look alike come from different tables or passages of the source.

A short description of data set [1]: Human liver microsomal stability assay (HLM). Type of data set: in vitro ADME. To be noted: 37° C., 1 h time course, read-out: HLM clearance. From the text:
(§1) In vitro measurement of substrate metabolism can be determined using the microsomal cytochrome P450 mono-oxygenase system. This is a useful application in ranking clearance of a number of compounds by Phase I (including cytochrome P450) metabolism prior to in vivo assessment Measurement of intrinsic clearance using these methods also allows a comparison of species difference to be made to assist with translation of pharmacokinetic parameters from preclinical to clinical study.
(§2) Rat and Human Liver Microsomal Stability Assay (RLM and HLM Respectively)
(§3) Human and rat Liver microsomal assays were performed using pooled microsomes from the Pfizer Global Supply (BD Gentest™). Chemical reagents were purchased from commercial sources (Sigma-Aldrich) and drug entities synthesised at Pfizer Global Research. Incubation mixtures contained 50 mM phosphate buffer pH 7.4, 5 mM MgCl2, 5 mM isocitric acid and 1 unit/ml isocitric dehydrogenase. The microsomes were defrosted at room temperature and sufficient volumes added to give a final concentration of 0.5 nmol cytochrome P450/ml. Following the addition of 1 μM of substrate, the incubation was pre-incubated at 37° C. for 5 minutes. The reaction was then initiated by the addition of 1 mM NADP and incubation aliquots are taken over a 1 h time course. The reaction was subsequently stopped by addition of acetonitrile cooled on ice. The incubation mixture was then centrifuged and the supernatant removed for injection onto LC-MS/MS system. Providing that the substrate concentration is below the Km, the metabolism should be first order giving a log-linear plot of substrate disappearance over time. The gradient of this line is the first order rate constant (k) and this maybe converted to estimate a substrates intrinsic clearance when factoring in the protein concentration.
(§4) The intrinsic clearance in rat or human liver microsomes is calculated from:
(§5) Where, k=−slope of Ln concentration vs. time (min−1)

The target in data set [2] is T1, mu opioid receptor (Homo sapiens, UniProt P35372). The experiment in a line: Beta-arrestin recruitment assay (DiscoveRx PathHunter). Type of data set: cell-based. On the set-up: host or cells: U2OS cells. On the procedure:
The ability of agonists to cause recruitment of beta-arrestin to the mu opioid receptor was measured using DiscoveRx PathHunter technology. A pro-linked tagged mu-opioid receptor and an EA-tagged beta-arrestin were expressed in U20S cells and beta-arrestin recruitment measured following the methodology in McGuinness et al., 2009 (J Biomol Screen 14:49-58, Characterizing cannabinoid CB2 receptor ligands using DiscoverRx PathHunter beta-arrestin assay—McGuinness D., Malikzay A., Visconti R., Lin K., Bayne M., Monsma F., Lunn C A.)
Data appear in the Table below under “arrestin EC50” in nM.
On the technique in general: Activated receptors often draw arrestin, which recruitment assays turn into a signal.
Target sequence in this assay (P35372 whole entry, species assumed): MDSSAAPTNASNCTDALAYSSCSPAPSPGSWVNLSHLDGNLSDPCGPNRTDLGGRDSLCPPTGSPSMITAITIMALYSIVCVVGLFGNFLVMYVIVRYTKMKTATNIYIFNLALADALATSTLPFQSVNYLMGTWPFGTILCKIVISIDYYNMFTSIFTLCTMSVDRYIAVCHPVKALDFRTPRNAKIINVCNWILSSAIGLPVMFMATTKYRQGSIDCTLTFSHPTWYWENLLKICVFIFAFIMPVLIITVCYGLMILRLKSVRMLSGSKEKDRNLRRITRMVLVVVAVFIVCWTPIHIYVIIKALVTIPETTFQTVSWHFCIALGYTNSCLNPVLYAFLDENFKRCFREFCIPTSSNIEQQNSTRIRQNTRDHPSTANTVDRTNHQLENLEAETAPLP
Target sequence in this assay (P32121 whole entry partner, species assumed): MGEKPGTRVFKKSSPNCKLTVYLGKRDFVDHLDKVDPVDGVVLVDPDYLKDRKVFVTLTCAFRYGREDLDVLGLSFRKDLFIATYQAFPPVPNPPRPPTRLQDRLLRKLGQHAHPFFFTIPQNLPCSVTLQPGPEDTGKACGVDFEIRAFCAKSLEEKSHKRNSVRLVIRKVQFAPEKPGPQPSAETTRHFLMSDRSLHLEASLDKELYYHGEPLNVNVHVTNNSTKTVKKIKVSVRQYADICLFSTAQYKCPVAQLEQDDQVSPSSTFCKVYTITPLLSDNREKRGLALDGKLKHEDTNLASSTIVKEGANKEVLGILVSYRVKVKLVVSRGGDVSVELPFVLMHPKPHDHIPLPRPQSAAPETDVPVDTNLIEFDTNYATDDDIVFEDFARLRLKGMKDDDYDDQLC

Data set [3] is described as follows: Rat liver microsomal stability assay (RLM). It counts as in vitro ADME. To be noted: 37° C., 1 h time course, read-out: RLMclearance.
Description: as §1, §2, §3, §4, §5
Background: Liver microsomes are a subcellular fraction often used to study metabolism.

In data set [4] the target is T1, mu opioid receptor. The experiment in a line: Inhibition of forskolin stimulated cAMP production (alphascreen). Details: expressed in transfected cells; host or cells: CHO cells. It counts as cell-based. The procedure: Forskolin Stimulated cAMP
The ability of mu opioid receptor agonists to inhibit forskolin stimulated cAMP production was measured in CHO cells recombinantly expressing the mu opioid receptor, using alphascreen technology as described in Nickolls et al., 2005, with the additional inclusion of 50 uM forskolin in the assay buffer. (J Pharmacol Exp Ther 313; 1281-88, Functional selectivity of melanocortin 4 receptor peptide and non-peptide agonists: Evidence for ligand specific conformational states. Nickolls S A., Fleck B., Hoare S., Maki R.)
Data appear in the Table below under “mu-opioid IC50” in nM.
Target sequence in this assay (P35372 whole entry, species assumed): as the sequence (P35372 whole entry, species assumed) above

Data set [5] can be described thus: physchem. To be noted: pH 7.4.
Description: LogD octanol (pH 7.4) is a measure of lipophilicity that accounts for both hydrophobic and hydrogen-bonding interactions of a given substrate. This assay is based on shake-flask methodology, performed in a fully automated manner in a 0.1M phosphate buffer pH7.4—octanol system.
After addition of the test substance in DMSO stock solution to the mixture and vigorous agitation followed by separation of the octanol and buffer layers by centrifugation, duplicate samples are removed from each layer and diluted prior to analysis by LC-MS/MS.
The duplicate log D values must be with 0.4 log units of each other and the positive controls must be within 0.2 log units of the known log D value.
For data set [6] the following is noted: octanol / 0.1M phosphate buffer pH 7.4, positive controls; cited from earlier work.
Setting [7] is: pH 7.4, human liver microsomes, 1 μM substrate.
The mark [8] stands for this setting: pH 7.4, rat liver microsomes, 1 μM substrate.
Setting [9] is: U20S cells expressing pro-linked tagged mu-opioid receptor and EA-tagged beta-arrestin, read-out: β-Arrestin EC50.
[10] abbreviates: CHO cells recombinantly expressing the mu opioid receptor, 50 uM forskolin, read-out: mu-opioid IC50.

Usually EC50 stands for the concentration needed to bring the measured effect to its halfway point. As to `Cc1cc(O)cc(C)c1C[C@H](NC(=N)N)C(=O)N[C@H](C)C(=O)NC[C@H](Cc1ccccc1)NC(=O)CCNC(=N)N` [Example 6], the results for the microsomal CLint at 1 μM in data set [1] (setting [7]) and in data set [3] (setting [8]) were 8 µL/min/mg and 8.5 µL/min/mg, respectively. The same molecule displayed an EC50 in data set [2] of 162 nM.

As usually defined, the IC50 is the midpoint of a concentration-inhibition curve. Broadly, the logD is lipophilicity at a set pH, counting ionised and neutral species. Low readings indicate a more hydrophilic compound, high ones a more lipophilic compound. As to `Cc1cc(O)cc(C)c1C[C@H](NC(=N)N)C(=O)N[C@H](C)C(=O)NCCCc1ccccc1` [Example 11, (S)-2-Guanidino-3-(4-hydroxy-2,6-dimethyl-phenyl)-N-[(R)-1-(3-phenyl-propylcarbamoyl)-ethyl]-propionamide], the microsomal CLint at 1 μM stood at 74 µL/min/mg in data set [1] (pooled human liver microsomes, pH 7.4, 1 μM substrate) and 61 µL/min/mg in data set [3] (pooled rat liver microsomes, pH 7.4, 1 μM substrate). Half-maximal inhibition in data set [4] (IC50) was put at 8.59 nM. Moreover, the logD in data set [5] (octanol / 0.1 M phosphate buffer) was -0.1.

On to `Cc1cc(O)cc(C)c1C[C@H](NC(=N)N)C(=O)N[C@H](CC[S+](C)[O-])C(=O)NC[C@H](Cc1ccccc1)NC(=N)N` (stereo partly drawn) [Example 10, N-alpha-[amino(imino)methyl]-N-[(1R)-1-{[(2S)-2-{[amino(imino)methyl]amino}-3-phenypropyl]carbamoyl}-3-(methylsulfinyl)propyl]-2,6-dimethyl-L-tyrosinamide bis-trifluoroacetate], for which the EC50 in data set [2] (setting [9]) was 17.6 nM.

Consider `Cc1cc(O)cc(C)c1C[C@H](NC(=N)N)C(=O)N[C@H](CCCCCC(=O)O)C(=O)NCCCc1ccccc1` [Example 7], for which the microsomal CLint at 1 μM in data set [1] (setting [7]) came to 8.61 µL/min/mg; in data set [3] (setting [8]), 9.48 µL/min/mg. The molecule also registered a half-maximal effective concentration (EC50) in data set [2] of 2460 nM. This molecule returned an IC50 in data set [4] of 116 nM. Also, the logD in data set [5] came out at 0.8.

As to `Cc1cc(O)cc(C)c1C[C@H](NC(=N)N)C(=O)N[C@H](C)C(=O)NC[C@H](Cc1ccccc1)NC(=O)CNC(=N)N` [Example 5], in data set [2] (setting [9]), the EC50 was 47.6 nM.

Turning to `CN(C)CCC=C1c2ccccc2CCc2ccccc21` [amitriptyline], in data set [6], the “log D (known value of positive control)” value was 2.7±0.2.

With `Cc1cc(O)cc(C)c1C[C@H](NC(=N)N)C(=O)N[C@H](C)C(=O)NC[C@H](Cc1ccccc1)NC(=N)N` [Example 1, N-[Amino(imino)methyl]-2,6-dimethyl-L-tyrosyl-N-[(2S)-2-{[amino(imino)methyl]amino}-3-phenylpropyl]-D-alaninamide], the microsomal CLint at 1 μM in data set [1] (setting [7]) was determined as 10.6 µL/min/mg; in data set [3] (setting [8]), 8.5 µL/min/mg. Besides, the EC50 in data set [2] (setting [9]) was determined as 41.4 nM. Also, the IC50 in data set [4] (setting [10]) came out at 26 nM. Also, the logD in data set [5] is -0.2.

In the case of `Cc1ncc2n1-c1ccc(Cl)cc1C(c1ccccc1F)=NC2` [midazolam], the “log D (known value of positive control)” value in data set [6] is given as 3.3±0.2.

Regarding `CC(=O)N[C@H](CNC(=O)[C@@H](C)NC(=O)[C@H](Cc1c(C)cc(O)cc1C)NC(=N)N)Cc1ccccc1` [Example 8], the values for the microsomal CLint at 1 μM in data set [1] (setting [7]) and in data set [3] (setting [8]) were 15.4 µL/min/mg and 12.1 µL/min/mg, respectively. Also, in data set [4] (setting [10]), the IC50 came to 26.6 nM. The logD in data set [5] was -0.35.

With `Cc1cc(O)cc(C)c1C[C@H](NC(=N)N)C(=O)N[C@H](C)C(=O)NCC(CNC(=N)N)Cc1ccccc1` (mixture of isomers) [Example 2], the microsomal CLint at 1 μM in data set [1] (setting [7]) came out at 15.9 µL/min/mg; in data set [3] (setting [8]), 8.5 µL/min/mg. For the same molecule, in data set [2] (setting [9]), the EC50 was found to be 34.8 nM. Besides, the logD in data set [5] was -0.7.

In data set [2], `Cc1cc(O)cc(C)c1C[C@H](N=C(N(C)C)N(C)C)C(=O)N[C@H](C)C(=O)NC[C@H](Cc1ccccc1)NC(=N)N` [Example 3] registered an EC50 of 10000 nM.

Turning to `C[C@@H](NC(=O)[C@H](Cc1ccc(O)cc1)NC(=N)N)C(=O)NC[C@H](Cc1ccccc1)NC(=N)N` [Example 4], the microsomal CLint at 1 μM in data set [1] (setting [7]) is 9.54 µL/min/mg; in data set [3] (setting [8]) it was 13.4 µL/min/mg. The molecule also yielded an EC50 in data set [2] of 5070 nM. This molecule registered a logD in data set [5] of -0.3.

`Cc1cc(O)cc(C)c1C[C@H](NC(=N)N)C(=O)N[C@H](C)C(=O)NC[C@@H](N)Cc1ccccc1` [Example 9]: the microsomal CLint at 1 μM was determined as 13.6 µL/min/mg in data set [1] (setting [7]) and 12.9 µL/min/mg in data set [3] (setting [8]). In addition, the EC50 in data set [2] (setting [9]) is 55.2 nM. Also, the IC50 in data set [4] (setting [10]) stood at 15.3 nM.
